Measured values published in patent US6846921B2, “Chimeric antisense oligonucleotides and cell transfecting formulations thereof” (Chiron Corporation, priority 1999, dated 2005).
{5'-OMe-dT} = O-methyl thymidine blocking nucleotide (W), phosphodiester-linked; {3'-3'N} = to-3' linked nucleotide blocking group (Z), phosphodiester-linked; d = 2'-deoxy (DNA); m = 2'-O-methyl

Key:
p110α mRNA = p110α mRNA knockout after transfection of chimeric antisense oligonucleotide; assay type: cell-based, human; conditions: HT1080 cells, Lipitoid 1 for transfection, incubated 24 hours, approximate level
Procedure: (§1) With the exception of the mTyr oligo (SEQ ID NO: 17-18), which was transfected into B16 melanoma cells, all oligos shown in Table 1 were transfected into HT1080 cells, using “Lipitoid 1” (see below) for transfection, and incubated for 24 hours. The table gives the approximate level of mRNA knockout observed in each case.
(§2) For each transfection mixture, a carrier molecule, preferably a lipitoid or cholesteroid, was prepared to a working concentration of 0.5 mM in water, sonicated to yield a uniform solution, and filtered through a 0.45 μm PVDF membrane. The antisense oligonucleotide was prepared to a working concentration of 100 μM in sterile Millipore water. […]
(§3) The level of target mRNA was quantitated using the Roche LightCycler™ real-time PCR machine. […]
(§4) An amplification mixture was prepared by mixing in the following order: 1×PCR buffer II, 3 mM MgCl2, 140 μM each dNTP, 0.175 pmol each oligo, 1:50,000 dil of SYBR® Green, 0.25 mg/ml BSA, 1 unit Taq polymerase, and H2O to 20 μl. (PCR buffer II is available in 10×concentration from Perkin-Elmer (Norwalk, Conn.). In 1×concentration it contains 10 mM Tris pH 8.3 and 50 mM KCl. SYBR® Green (Molecular Probes, Eugene, Oreg.) is a dye which fluoresces when bound to double stranded DNA. As double stranded PCR product is produced during amplification, the fluorescence from SYBR® Green increases.) […]

MMP9 mRNA = MMP9 mRNA knockout after transfection of chimeric antisense oligonucleotide; assay type: cell-based, human; conditions: HT1080 cells, Lipitoid 1 for transfection, incubated 24 hours, approximate level
Procedure: as §1, §2, §3, §4

UPAR mRNA = UPAR mRNA knockout after transfection of chimeric antisense oligonucleotide; assay type: cell-based, human; conditions: HT1080 cells, Lipitoid 1 for transfection, incubated 24 hours, approximate level
Procedure: as §1, §2, §3, §4

p110β mRNA = p110β mRNA knockout after transfection of chimeric antisense oligonucleotide; assay type: cell-based, human; conditions: HT1080 cells, Lipitoid 1 for transfection, incubated 24 hours, approximate level
Procedure: as §1, §2, §3, §4

PDK1 mRNA = PDK1 mRNA knockout after transfection of chimeric antisense oligonucleotide; assay type: cell-based, human; conditions: HT1080 cells, Lipitoid 1 for transfection, incubated 24 hours, approximate level
Procedure: as §1, §2, §3, §4

CHK2 mRNA = CHK2 mRNA knockout after transfection of chimeric antisense oligonucleotide; assay type: cell-based, human; conditions: HT1080 cells, Lipitoid 1 for transfection, incubated 24 hours, approximate level
Procedure: as §1, §2, §3, §4

AKT2 mRNA = AKT2 mRNA knockout after transfection of chimeric antisense oligonucleotide; assay type: cell-based, human; conditions: HT1080 cells, Lipitoid 1 for transfection, incubated 24 hours, approximate level
Procedure: as §1, §2, §3, §4

mTyr mRNA = mTyr mRNA knockout after transfection into B16 melanoma cells; assay type: cell-based; conditions: approximate level
Procedure: as §1, §2, §3, §4

MMP2 mRNA = MMP2 mRNA knockout after transfection of chimeric antisense oligonucleotide; assay type: cell-based, human; conditions: HT1080 cells, Lipitoid 1 for transfection, incubated 24 hours, approximate level
Procedure: as §1, §2, §3, §4

Substance: 19 (ATCTGGTCGCCTCATTTGCTCAACT; antisense; sugars from the 5' end m7 d11 m7, 5' {5'-OMe-dT}, 3' {3'-3'N}, backbone and T or U not given here; 2'-OMe blocks are phosphodiester, DNA gap is phosphorothioate) [compound 19]
- mRNA knockout (p110α mRNA): >95%

Substance: 16 (GCTTTCTCTCGGTACTGGAAGACGT; antisense; sugars from the 5' end m7 d11 m7, 5' {5'-OMe-dT}, 3' {3'-3'N}, backbone and T or U not given here; 2'-OMe blocks are phosphodiester, DNA gap is phosphorothioate) [compound 16]
- mRNA knockout (MMP9 mRNA): >80%

Substance: 24 (GGCAGTCATTAGCAGGGTGATGGTG; antisense; sugars from the 5' end m7 d11 m7, 5' {5'-OMe-dT}, 3' {3'-3'N}, backbone and T or U not given here; 2'-OMe blocks are phosphodiester, DNA gap is phosphorothioate) [compound 24]
- mRNA knockout (UPAR mRNA): >80%

Substance: 21 (TGATGAAGAGATTCCCATGCCGTCG; antisense; sugars from the 5' end m7 d11 m7, 5' {5'-OMe-dT}, 3' {3'-3'N}, backbone and T or U not given here; 2'-OMe blocks are phosphodiester, DNA gap is phosphorothioate) [compound 21]
- mRNA knockout (p110β mRNA): >90%

Substance: 23 (CTGTGAGCAACAGCTGTCGTCGTCT; antisense; sugars from the 5' end m7 d11 m7, 5' {5'-OMe-dT}, 3' {3'-3'N}, backbone and T or U not given here; 2'-OMe blocks are phosphodiester, DNA gap is phosphorothioate) [compound 23]
- mRNA knockout (PDK1 mRNA): >90%

Substance: 4 (GACCCACTTCCCTGAAAATCCGAAA; antisense; sugars from the 5' end m7 d11 m7, 5' {5'-OMe-dT}, 3' {3'-3'N}, backbone and T or U not given here; 2'-OMe blocks are phosphodiester, DNA gap is phosphorothioate) [compound 4]
- mRNA knockout (CHK2 mRNA): >90%

Substance: 2 (GTTCCCTTGCCAAGGAGTTTGAGAT; antisense; sugars from the 5' end m7 d11 m7, 5' {5'-OMe-dT}, 3' {3'-3'N}, backbone and T or U not given here; 2'-OMe blocks are phosphodiester, DNA gap is phosphorothioate) [compound 2]
- mRNA knockout (AKT2 mRNA): >85%

Substance: 17 (AACCCATGAAGTTGCCTGAGCACTG; antisense; sugars from the 5' end m7 d11 m7, 5' {5'-OMe-dT}, 3' {3'-3'N}, backbone and T or U not given here; 2'-OMe blocks are phosphodiester, DNA gap is phosphorothioate) [compound 17]
- mRNA knockout (mTyr mRNA): >90%

Substance: 14 (GAAGCCCCACTTGCGGTCGTCAT; sugars from the 5' end m7 d9 m7, 5' {5'-OMe-dT}, 3' {3'-3'N}, backbone and T or U not given here; 2'-OMe blocks are phosphodiester, DNA gap is phosphorothioate) [compound 14]
- mRNA knockout (MMP2 mRNA): >80%
